Calls of active or inactive are those of the source. The rule behind the calls is not given here.
Tested on: rodent lifetime carcinogenesis bioassay, tumor incidence TD50
Test: chronic cancer bioassays in animals – CPDB, compiled studies (AID 1745844)

Compound `[O]=[Mo](=[O])=[O]` has a TD50 (mouse, strain B6C3F1, females, inhaled, site: liver, lesion: hepatocellular adenoma + hepatoblastoma + hepatocellular carcinoma, dosed 105 weeks, study length 105 weeks) of 4450 mg/kg/day, a TD50 (mouse, strain B6C3F1, females, inhaled, site: lung, lesion: alveolar/bronchiolar adenoma + alveolar/bronchiolar carcinoma, dosed 105 weeks, study length 105 weeks) of 68.3 mg/kg/day and a TD50 (mouse, strain B6C3F1, females, inhaled, site: lung, lesion: alveolar/bronchiolar adenoma, dosed 105 weeks, study length 105 weeks) of 97.8 mg/kg/day. It also gave a TD50 (mouse, strain B6C3F1, females, inhaled, site: subcutaneous tissue, lesion: sarcoma, dosed 105 weeks, study length 105 weeks) of 162 mg/kg/day, a TD50 (mouse, strain B6C3F1, males, inhaled, site: liver, lesion: hepatocellular adenoma + hepatoblastoma + hepatocellular carcinoma, dosed 105 weeks, study length 105 weeks) of 11.7 mg/kg/day and a TD50 (mouse, strain B6C3F1, males, inhaled, site: liver, lesion: hepatocellular carcinoma, dosed 105 weeks, study length 105 weeks) of 14.8 mg/kg/day. For the same compound, the TD50 (mouse, strain B6C3F1, males, inhaled, site: lung, lesion: alveolar/bronchiolar adenoma + alveolar/bronchiolar carcinoma, dosed 105 weeks, study length 105 weeks) was 3.21 mg/kg/day, the TD50 (mouse, strain B6C3F1, males, inhaled, site: lung, lesion: alveolar/bronchiolar carcinoma, dosed 105 weeks, study length 105 weeks) was 4.15 mg/kg/day and the TD50 (rat, strain Fischer 344, females, inhaled, site: any site (literature study), lesion: several types, types named in the paper, dosed 105 weeks, study length 105 weeks) was 14 mg/kg/day. For the same compound, the TD50 (rat, strain Fischer 344, females, inhaled, site: clitoral gland, lesion: adenoma + carcinoma, dosed 105 weeks, study length 105 weeks) was 5.04 mg/kg/day, the TD50 (rat, strain Fischer 344, females, inhaled, site: mammary gland, lesion: adenoma + fibroadenoma, dosed 105 weeks, study length 105 weeks) was 0.77 mg/kg/day (inactive) and the TD50 (rat, strain Fischer 344, males, inhaled, site: liver, lesion: hepatocellular adenoma + hepatoblastoma + hepatocellular carcinoma, dosed 105 weeks, study length 105 weeks) was 128 mg/kg/day. The TD50 (rat, strain Fischer 344, males, inhaled, site: lung, lesion: alveolar/bronchiolar adenoma + alveolar/bronchiolar carcinoma, dosed 105 weeks, study length 105 weeks) was 21.8 mg/kg/day and the TD50 (rat, strain Fischer 344, males, inhaled, site: lung, lesion: alveolar/bronchiolar adenoma, dosed 105 weeks, study length 105 weeks) was 31.6 mg/kg/day.
`S=C(NC1CCCCC1)NC1CCCCC1` was tested, and the TD50 (mouse, strain B6C3F1, females, in feed, site: any site (literature study), lesion: several types, types named in the paper, dosed 109 weeks, study length 103 weeks) was 122000 mg/kg/day (inactive), the TD50 (mouse, strain B6C3F1, females, in feed, site: lung, lesion: alveolar/bronchiolar adenoma + alveolar/bronchiolar carcinoma, dosed 109 weeks, study length 103 weeks) was 1.11e+08 mg/kg/day and the carcinogen call (mouse, strain B6C3F1, males, in feed, site: any site (literature study), lesion: several types, types named in the paper, dosed 109 weeks, study length 103 weeks) was “negative (inactive)”. The carcinogen call (rat, strain Fischer 344, females, in feed, site: any site (literature study), lesion: several types, types named in the paper, dosed 109 weeks, study length 109 weeks) was “negative (inactive)”, the TD50 (rat, strain Fischer 344, males, in feed, site: any site (literature study), lesion: several types, types named in the paper, dosed 109 weeks, study length 109 weeks) was 3910 mg/kg/day and the TD50 (rat, strain Fischer 344, males, in feed, site: liver, lesion: hepatocellular adenoma + hepatocellular carcinoma + neoplastic nodule, dosed 109 weeks, study length 109 weeks) was 15600 mg/kg/day. For the same compound, the TD50 (rat, strain Fischer 344, males, in feed, site: skin, lesion: basal-cell carcinoma, dosed 109 weeks, study length 109 weeks) was 26100 mg/kg/day, the TD50 (rat, strain Fischer 344, males, in feed, site: thyroid gland, lesion: c-cell adenoma, dosed 109 weeks, study length 109 weeks) was 5480 mg/kg/day (inactive) and the TD50 (rat, strain Fischer 344, males, in feed, site: thyroid gland, lesion: follicular-cell adenoma + follicular-cell carcinoma, dosed 109 weeks, study length 109 weeks) was 7410 mg/kg/day.
For `NNc1ccccc1`, the TD50 (mouse, strain Swiss albino, females, in drinking water, site: blood vessels, lesion: angioma, dosed 112 weeks, study length 112 weeks) was 147 mg/kg/day, the TD50 (mouse, strain Swiss albino, females, in drinking water, site: blood vessels, lesion: angiosarcoma, dosed 112 weeks, study length 112 weeks) was 165 mg/kg/day and the TD50 (mouse, strain Swiss albino, females, in drinking water, site: blood vessels, lesion: several types, types named in the paper, dosed 112 weeks, study length 112 weeks) was 72.1 mg/kg/day. It also gave a TD50 (mouse, strain Swiss albino, females, in drinking water, site: liver, lesion: angioma, dosed 112 weeks, study length 112 weeks) of 165 mg/kg/day, a TD50 (mouse, strain Swiss albino, females, in drinking water, site: liver, lesion: angiosarcoma, dosed 112 weeks, study length 112 weeks) of 165 mg/kg/day and a TD50 (mouse, strain Swiss albino, females, in drinking water, site: liver, lesion: several types, types named in the paper, dosed 112 weeks, study length 112 weeks) of 68.6 mg/kg/day. For the same compound, the carcinogen call (mouse, strain Swiss albino, females, in drinking water, site: lung, lesion: several types, types named in the paper, dosed 112 weeks, study length 112 weeks) was “negative (inactive)”, the TD50 (mouse, strain Swiss albino, males, in drinking water, site: blood vessels, lesion: several types, types named in the paper, dosed 112 weeks, study length 112 weeks) was 70.6 mg/kg/day and the TD50 (mouse, strain Swiss albino, males, in drinking water, site: liver, lesion: several types, types named in the paper, dosed 112 weeks, study length 112 weeks) was 83.9 mg/kg/day. For the same compound, the carcinogen call (mouse, strain Swiss albino, males, in drinking water, site: lung, lesion: several types, types named in the paper, dosed 112 weeks, study length 112 weeks) was “negative (inactive)” and the carcinogen call (mouse, strain Swiss, females, by gavage, site: lung, lesion: one or several types, types not named, dosed 39 weeks, study length 55 weeks) was “negative (inactive)”.
For `OCl`, the carcinogen call (mouse, strain B6C3F1, females, in drinking water, site: any site (literature study), lesion: several types, types named in the paper, dosed 103 weeks, study length 106 weeks) was “negative (inactive)”, the carcinogen call (mouse, strain B6C3F1, females, in drinking water, site: liver, lesion: hepatocellular carcinoma, dosed 103 weeks, study length 106 weeks) was “negative (inactive)” and the carcinogen call (mouse, strain B6C3F1, females, in drinking water, site: liver, lesion: several types, types named in the paper, dosed 103 weeks, study length 106 weeks) was “negative (inactive)”. For the same compound, the TD50 (mouse, strain B6C3F1, females, in drinking water, site: lung, lesion: several types, types named in the paper, dosed 103 weeks, study length 106 weeks) was 22900 mg/kg/day (inactive), the TD50 (mouse, strain B6C3F1, males, in drinking water, site: any site (literature study), lesion: several types, types named in the paper, dosed 103 weeks, study length 106 weeks) was 350 mg/kg/day (inactive) and the carcinogen call (mouse, strain B6C3F1, males, in drinking water, site: liver, lesion: hepatocellular carcinoma, dosed 103 weeks, study length 106 weeks) was “negative (inactive)”. The TD50 (mouse, strain B6C3F1, males, in drinking water, site: liver, lesion: several types, types named in the paper, dosed 103 weeks, study length 106 weeks) was 876 mg/kg/day (inactive), the TD50 (mouse, strain B6C3F1, males, in drinking water, site: lung, lesion: several types, types named in the paper, dosed 103 weeks, study length 106 weeks) was 2040 mg/kg/day (inactive) and the TD50 (rat, strain F344/DuCrj, females, in drinking water, site: liver, lesion: several types, types named in the paper, dosed 104 weeks, study length 112 weeks) was 6300 mg/kg/day (inactive). The carcinogen call (rat, strain F344/DuCrj, males, in drinking water, site: liver, lesion: cholangioma, dosed 104 weeks, study length 112 weeks) was “negative (inactive)”, the carcinogen call (rat, strain F344/DuCrj, males, in drinking water, site: liver, lesion: fibrous histiocytoma, dosed 104 weeks, study length 112 weeks) was “negative (inactive)” and the carcinogen call (rat, strain F344/DuCrj, males, in drinking water, site: liver, lesion: several types, types named in the paper, dosed 104 weeks, study length 112 weeks) was “negative (inactive)”.
With `[O]=[Cr](=[O])([OH])[O][Cr](=[O])(=[O])[OH]` the TD50 (rat, strain Wistar, males, inhaled, site: any site (literature study), lesion: several types, types named in the paper, dosed 78 weeks, study length 130 weeks) was 0.875 mg/kg/day, the TD50 (rat, strain Wistar, males, inhaled, site: liver, lesion: malignant tumor, dosed 78 weeks, study length 130 weeks) was 14.4 mg/kg/day and the TD50 (rat, strain Wistar, males, inhaled, site: lung, lesion: adenocarcinoma, dosed 78 weeks, study length 130 weeks) was 7.07 mg/kg/day. The TD50 (rat, strain Wistar, males, inhaled, site: lung, lesion: adenoma, dosed 78 weeks, study length 130 weeks) was 14.4 mg/kg/day, the TD50 (rat, strain Wistar, males, inhaled, site: lung, lesion: several types, types named in the paper, dosed 78 weeks, study length 130 weeks) was 4.64 mg/kg/day and the TD50 (rat, strain Wistar, males, inhaled, site: pharynx, lesion: squamous-cell carcinoma, dosed 78 weeks, study length 130 weeks) was 14.4 mg/kg/day.
In the case of `COC1=CC(=O)C[C@@H](C)[C@]12Oc1c(Cl)c(OC)cc(OC)c1C2=O`, the carcinogen call (hamster, strain Syrian Golden, females, in feed, site: liver, lesion: cholangiocarcinoma, dosed 97 weeks, study length 101 weeks) is reported as “negative (inactive)”, the carcinogen call (hamster, strain Syrian Golden, males, in feed, site: liver, lesion: one or several types, types not named, dosed 123 weeks, study length 127 weeks) is reported as “negative (inactive)” and the TD50 (mouse, strain Swiss albino, females, by gavage, site: mammary gland, lesion: infiltrating duct carcinoma, dosed 52 weeks, study length 52 weeks) is reported as 13.8 mg/kg/day. For the same compound, the carcinogen call (mouse, strain Swiss, females, in feed, site: liver, lesion: hemangioma, dosed 115 weeks, study length 115 weeks) was “negative (inactive)”, the carcinogen call (mouse, strain Swiss, females, in feed, site: lung, lesion: one or several types, types not named, dosed 115 weeks, study length 115 weeks) was “negative (inactive)” and the carcinogen call (mouse, strain Swiss, males, in feed, site: liver, lesion: hemangioma, dosed 115 weeks, study length 115 weeks) was “negative (inactive)”. The TD50 (mouse, strain Swiss, males, in feed, site: liver, lesion: hepatoma, dosed 115 weeks, study length 115 weeks) was 1660 mg/kg/day and the carcinogen call (mouse, strain Swiss, males, in feed, site: lung, lesion: one or several types, types not named, dosed 115 weeks, study length 115 weeks) was “negative (inactive)”.
In the case of `CN(N=O)c1ccccc1`, the TD50 (rat, strain Chester Beatty albino, females, in drinking water, site: esophagus, lesion: benign tumor, dosed 67 weeks, study length 67 weeks) is reported as 32 mg/kg/day, the carcinogen call (rat, strain Chester Beatty albino, females, in drinking water, site: esophagus, lesion: several types, types named in the paper, dosed 67 weeks, study length 67 weeks) is reported as “positive” and the TD50 (rat, strain Chester Beatty albino, females, in drinking water, site: esophagus, lesion: squamous-cell carcinoma, dosed 67 weeks, study length 67 weeks) is reported as 26.4 mg/kg/day. The carcinogen call (rat, strain Chester Beatty albino, females, in drinking water, site: liver, lesion: one or several types, types not named, dosed 67 weeks, study length 67 weeks) was “negative (inactive)”, the TD50 (rat, strain Chester Beatty albino, males, in drinking water, site: esophagus, lesion: benign tumor, dosed 60 weeks, study length 60 weeks) was 70.4 mg/kg/day and the TD50 (rat, strain Chester Beatty albino, males, in drinking water, site: esophagus, lesion: several types, types named in the paper, dosed 60 weeks, study length 60 weeks) was 5.27 mg/kg/day. The TD50 (rat, strain Chester Beatty albino, males, in drinking water, site: esophagus, lesion: squamous-cell carcinoma, dosed 60 weeks, study length 60 weeks) was 10.5 mg/kg/day, the carcinogen call (rat, strain Chester Beatty albino, males, in drinking water, site: liver, lesion: one or several types, types not named, dosed 60 weeks, study length 60 weeks) was “negative (inactive)” and the TD50 (rat, strain Fischer 344, females, in drinking water, site: esophagus, lesion: carcinoma, dosed 50 weeks, study length 114 weeks) was 0.458 mg/kg/day. It also gave a TD50 (rat, strain Fischer 344, males, in drinking water, site: esophagus, lesion: several types, types named in the paper, dosed 50 weeks, study length 114 weeks) of 0.272 mg/kg/day and a TD50 (rat, strain Sprague-Dawley, both sexes, in drinking water, site: esophagus, lesion: several types, types named in the paper, dosed 104 weeks, study length 104 weeks) of 0.0343 mg/kg/day.
Work on `C=C(F)F` yielded a TD50 (rat, strain Sprague-Dawley, females, by gavage, site: fat, lesion: lipoma, dosed 52 weeks, study length 141 weeks) of 60.3 mg/kg/day, a TD50 (rat, strain Sprague-Dawley, females, by gavage, site: fat, lesion: liposarcoma, dosed 52 weeks, study length 141 weeks) of 122 mg/kg/day and a TD50 (rat, strain Sprague-Dawley, males, by gavage, site: fat, lesion: liposarcoma, dosed 52 weeks, study length 141 weeks) of 38.8 mg/kg/day.
